Columns and labels:
Assay in all cases: relative viability (nuclei count vs DMSO), 5 days (fraction); higher = more cells survive
NCI-H2170 = system: NCI-H2170
How it was run: (§1)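 Relative viability is defined as nuclei in treated wells over nuclei in vehicle wells. Duplicate plates were run and medians reported. Lung cancer cell lines in 1536-well plates were dosed by pin tool one day after seeding, with one drug or with a fixed anchor-drug dose plus five library-drug doses (not always all listed) in √10 steps, and nuclei were counted after 5 days.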

LCLC-103H = system: LCLC-103H
How it was run: as §1

LOU-NH91 = system: LOU-NH91
How it was run: as §1

NCI-H520 = system: NCI-H520
How it was run: as §1

HCC-366 = system: HCC-366
How it was run: as §1

RERF-LC-KJ = system: RERF-LC-KJ
How it was run: as §1

NCI-H596 = system: NCI-H596
How it was run: as §1

NCI-H1755 = system: NCI-H1755
How it was run: as §1

SW 1573 = system: SW 1573
How it was run: as §1

NCI-H838 = system: NCI-H838
How it was run: as §1

NCI-H1651 = system: NCI-H1651
How it was run: as §1

HCC-78 = system: HCC-78
How it was run: as §1

NCI-H1975 = system: NCI-H1975
How it was run: as §1

HCC-827 = system: HCC-827
How it was run: as §1

UMC-11 = system: UMC-11
How it was run: as §1

NCI-H1993 = system: NCI-H1993
How it was run: as §1

SK-MES-1 = system: SK-MES-1
How it was run: as §1

PC-3 [JPC-3] = system: PC-3 [JPC-3]
How it was run: as §1

HARA = system: HARA
How it was run: as §1

NCI-H1793 = system: NCI-H1793
How it was run: as §1

HCC-44 = system: HCC-44
How it was run: as §1

COR-L 105 = system: COR-L 105
How it was run: as §1

EPLC-272H = system: EPLC-272H
How it was run: as §1

NCI-H1355 = system: NCI-H1355
How it was run: as §1

Work on `Nc1cccc2c1CN(C1CCC(=O)NC1=O)C2=O` (centres undefined) [Lenalidomide] + Nc1ncn([C@H]2C[C@H](O)[C@@H](CO)O2)c(=O)n1 [Decitabine] (partner 2 µM) yielded a relative viability (NCI-H2170; first compound 0.253 µM) of 0.49, a relative viability (NCI-H2170; first compound 0.8 µM) of 0.429 and a relative viability (NCI-H2170; first compound 2.53 µM) of 0.469. The relative viability (NCI-H2170; first compound 8 µM) was 0.471, the relative viability (LCLC-103H; first compound 0.253 µM) was 0.72 and the relative viability (LCLC-103H; first compound 0.8 µM) was 0.664. The relative viability (LCLC-103H; first compound 2.53 µM) was 0.73, the relative viability (LCLC-103H; first compound 8 µM) was 0.651 and the relative viability (LOU-NH91; first compound 0.253 µM) was 0.815. For the same compound, the relative viability (LOU-NH91; first compound 0.8 µM) was 0.826, the relative viability (LOU-NH91; first compound 2.53 µM) was 0.831 and the relative viability (LOU-NH91; first compound 8 µM) was 0.765. The relative viability (NCI-H520; first compound 0.253 µM) was 0.539, the relative viability (NCI-H520; first compound 0.8 µM) was 0.548 and the relative viability (NCI-H520; first compound 2.53 µM) was 0.507. The relative viability (NCI-H520; first compound 8 µM) was 0.438, the relative viability (HCC-366; first compound 0.253 µM) was 0.337 and the relative viability (HCC-366; first compound 0.8 µM) was 0.377. The relative viability (HCC-366; first compound 2.53 µM) was 0.366, the relative viability (HCC-366; first compound 8 µM) was 0.354 and the relative viability (RERF-LC-KJ; first compound 0.253 µM) was 0.717. The relative viability (RERF-LC-KJ; first compound 0.8 µM) was 0.655, the relative viability (RERF-LC-KJ; first compound 2.53 µM) was 0.65 and the relative viability (RERF-LC-KJ; first compound 8 µM) was 0.774. The relative viability (NCI-H596; first compound 0.253 µM) was 0.85, the relative viability (NCI-H596; first compound 0.8 µM) was 1.46 and the relative viability (NCI-H596; first compound 2.53 µM) was 1.06. The relative viability (NCI-H596; first compound 8 µM) was 0.95, the relative viability (NCI-H1755; first compound 0.253 µM) was 0.763 and the relative viability (NCI-H1755; first compound 0.8 µM) was 0.687. For the same compound, the relative viability (NCI-H1755; first compound 2.53 µM) was 0.712, the relative viability (NCI-H1755; first compound 8 µM) was 0.688 and the relative viability (SW 1573; first compound 0.253 µM) was 0.536. It also gave a relative viability (SW 1573; first compound 0.8 µM) of 0.625, a relative viability (SW 1573; first compound 2.53 µM) of 0.591 and a relative viability (SW 1573; first compound 8 µM) of 0.542. It also gave a relative viability (NCI-H838; first compound 0.253 µM) of 0.483, a relative viability (NCI-H838; first compound 0.8 µM) of 0.404 and a relative viability (NCI-H838; first compound 2.53 µM) of 0.527. It also gave a relative viability (NCI-H838; first compound 8 µM) of 0.491, a relative viability (NCI-H1651; first compound 0.253 µM) of 0.631 and a relative viability (NCI-H1651; first compound 0.8 µM) of 0.5. It also gave a relative viability (NCI-H1651; first compound 2.53 µM) of 0.645, a relative viability (NCI-H1651; first compound 8 µM) of 0.582 and a relative viability (HCC-78; first compound 0.253 µM) of 0.731. It also gave a relative viability (HCC-78; first compound 0.8 µM) of 0.637, a relative viability (HCC-78; first compound 2.53 µM) of 0.703 and a relative viability (HCC-78; first compound 8 µM) of 0.558. For the same compound, the relative viability (NCI-H1975; first compound 0.253 µM) was 0.414, the relative viability (NCI-H1975; first compound 0.8 µM) was 0.334 and the relative viability (NCI-H1975; first compound 2.53 µM) was 0.421. The relative viability (NCI-H1975; first compound 8 µM) was 0.356, the relative viability (HCC-827; first compound 0.253 µM) was 0.336 and the relative viability (HCC-827; first compound 0.8 µM) was 0.284. For the same compound, the relative viability (HCC-827; first compound 2.53 µM) was 0.348, the relative viability (HCC-827; first compound 8 µM) was 0.35 and the relative viability (UMC-11; first compound 0.253 µM) was 0.46. For the same compound, the relative viability (UMC-11; first compound 0.8 µM) was 0.688, the relative viability (UMC-11; first compound 2.53 µM) was 0.725 and the relative viability (UMC-11; first compound 8 µM) was 0.621. It also gave a relative viability (NCI-H1993; first compound 0.253 µM) of 0.658, a relative viability (NCI-H1993; first compound 0.8 µM) of 0.588 and a relative viability (NCI-H1993; first compound 2.53 µM) of 0.529. The relative viability (NCI-H1993; first compound 8 µM) was 0.51, the relative viability (SK-MES-1; first compound 0.253 µM) was 0.362 and the relative viability (SK-MES-1; first compound 0.8 µM) was 0.342. The relative viability (SK-MES-1; first compound 2.53 µM) was 0.428, the relative viability (SK-MES-1; first compound 8 µM) was 0.394 and the relative viability (PC-3 [JPC-3]; first compound 0.253 µM) was 0.848. The relative viability (PC-3 [JPC-3]; first compound 0.8 µM) was 0.807, the relative viability (PC-3 [JPC-3]; first compound 2.53 µM) was 0.874 and the relative viability (PC-3 [JPC-3]; first compound 8 µM) was 0.878. For the same compound, the relative viability (HARA; first compound 0.253 µM) was 0.597, the relative viability (HARA; first compound 2.53 µM) was 0.538 and the relative viability (HARA; first compound 8 µM) was 0.561. It also gave a relative viability (NCI-H1793; first compound 0.253 µM) of 0.464, a relative viability (NCI-H1793; first compound 2.53 µM) of 0.535 and a relative viability (NCI-H1793; first compound 8 µM) of 0.44. It also gave a relative viability (HCC-44; first compound 0.253 µM) of 0.946, a relative viability (HCC-44; first compound 0.8 µM) of 0.781 and a relative viability (HCC-44; first compound 2.53 µM) of 1.01. It also gave a relative viability (HCC-44; first compound 8 µM) of 0.853, a relative viability (COR-L 105; first compound 0.253 µM) of 0.684 and a relative viability (COR-L 105; first compound 0.8 µM) of 0.704. It also gave a relative viability (COR-L 105; first compound 2.53 µM) of 0.763, a relative viability (COR-L 105; first compound 8 µM) of 0.711 and a relative viability (EPLC-272H; first compound 0.253 µM) of 0.382. It also gave a relative viability (EPLC-272H; first compound 0.8 µM) of 0.381, a relative viability (EPLC-272H; first compound 2.53 µM) of 0.413 and a relative viability (EPLC-272H; first compound 8 µM) of 0.32. For the same compound, the relative viability (NCI-H1355; first compound 0.253 µM) was 0.36, the relative viability (NCI-H1355; first compound 0.8 µM) was 0.367 and the relative viability (NCI-H1355; first compound 2.53 µM) was 0.376. For the same compound, the relative viability (NCI-H1355; first compound 8 µM) was 0.341.

Reference: the supplement of paper PMC10307832
